For this assay, the target named is α7-subtype of nicotinic receptors (Mus musculus, UniProt P49582). The class given is in vivo, mice. The conditions noted are these: ex vivo, mouse hippocampal membranes; dose inhibiting specific binding of 3H-α-bungarotoxin (1 nM) by 50%.
α7-subtype of nicotinic receptors, sequence (P49582 23-502): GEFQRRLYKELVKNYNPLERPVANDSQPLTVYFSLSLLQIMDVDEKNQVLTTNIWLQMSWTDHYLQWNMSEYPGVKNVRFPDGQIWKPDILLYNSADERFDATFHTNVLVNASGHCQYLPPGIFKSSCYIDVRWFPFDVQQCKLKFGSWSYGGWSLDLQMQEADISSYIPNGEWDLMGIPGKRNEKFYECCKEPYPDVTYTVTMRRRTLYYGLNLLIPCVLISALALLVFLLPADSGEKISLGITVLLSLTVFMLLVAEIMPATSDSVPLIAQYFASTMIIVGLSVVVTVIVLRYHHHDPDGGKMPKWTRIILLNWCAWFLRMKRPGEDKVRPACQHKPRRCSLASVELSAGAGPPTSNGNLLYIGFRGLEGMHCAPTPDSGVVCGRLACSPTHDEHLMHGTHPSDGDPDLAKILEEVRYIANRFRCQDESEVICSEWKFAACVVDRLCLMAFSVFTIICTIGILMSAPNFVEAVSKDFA

`[O-][N+]12CCC(CC1)N(c1nnc(-c3ccoc3)o1)CC2` [Compound 1, 4-(5-Furan-3-yl-[1,3,4]oxadiazol-2-yl)-1,4-diaza-bicyclo[3.2.2]nonane 1-oxide]: the “EC50 (mg/kg), Inhibition of 3H-α-Bungarotoxine Binding” value turned out to be 40 mg/kg.

The values are drawn from patent publication US20110319397A1 (priority 2009, published 2011).
